Source: patent US6534525B1, “2-substituted piperidine analogs and their use as subtype-selective NMDA receptor antagonists” (Warner-Lambert & Company, priority 1995, dated 2003)

Assays:
[1] = biological target: NMDA receptor subunits 1A/2A (NR1A+NR2A) (Rattus norvegicus, UniProt P35439+Q00959); assay: Electrophysiological assay at cloned NMDA receptor subunits expressed in Xenopus oocytes, 1A/2A; assay type: cell-based; details: cloned rat NMDA receptor in Xenopus oocytes, two-electrode voltage clamp, currents activated by glutamate and glycine; read-out: Subunits (IC50(μM)) 1A/2A
Experimental: (§1) Electrophysiological Assays at NMDA Receptor Subunits
(§2) The clones were transformed into appropriate host bacteria and plasmid preparations were made with conventional DNA purification techniques. A sample of each clone was linearized by restriction enzyme digestion and cRNA was synthesized with T3 RNA polymerase. The cRNA was diluted to 400 ng/μl and stored in 1 μl aliquots at −80° C. until injection.
(§3) The Xenopus oocyte Expression System
(§4) Follicle-enclosed oocytes were micro-injected with 1:1 mixtures of cRNA:NR1A+NR2A, 2B, 2C or 2D; injecting ˜2,5, or 20 ng of RNA encoding each receptor subunit. NR1A encoding cRNA was injected alone at ˜20 ng. Oocytes were stored in Barth's medium containing (in mM):NaCl, 88; KCl, 1; CaCl2, 0.41; Ca(NO3)2, 0.33; MgSO4, 0.82 NaHCO3, 2.4; HEPES 5, pH 7.4, with 0.1 mg/ml gentamicin sulphate. While oocytes were still surrounded by enveloping ovarian tissues the Barth's medium was supplemented with 0.1% bovine serum.
(§5) Electrical recordings were made using a conventional two-electrode voltage clamp (Dagan TEV-200) over periods ranging between 3-14 days following injection. […] Drugs were applied by bath perfusion. Using oocytes expressing different subunit combinations of NMDA receptor, NMDA currents were activated by co-application of glutamate and glycine. Inhibitory potency of the novel antagonists was assessed on responses elicited by fixed concentrations of glutamate and glycine, by measuring reductions in current induced by progressively increasing concentrations of antagonists.
(§6) Concentration-inhibition curves were fit with equation 1.
(§7) in which Icontrol is the current evoked by agonists alone, pIC50=−log IC50, IC50 is the concentration of antagonist that produces half maximal inhibition, and n is the slope factor. […] For incomplete curves analysis by fitting was unreliable and IC50 values were calculated by simple regression over linear portions of the curves (Origin: Microcal Software).

[2] = biological target: NMDA receptor subunits 1A/2B (NR1A+NR2B) (Rattus norvegicus, UniProt P35439+Q00960); assay: Electrophysiological assay at cloned NMDA receptor subunits expressed in Xenopus oocytes, 1A/2B; assay type: cell-based; details: cloned rat NMDA receptor in Xenopus oocytes, two-electrode voltage clamp, currents activated by glutamate and glycine; read-out: Subunits (IC50(μM)) 1A/2B
Experimental: as §1, §2, §3, §4, §5, §6, §7

[3] = biological target: NMDA receptor subunits 1A/2C (NR1A+NR2C) (Rattus norvegicus, UniProt P35439+Q00961); assay: Electrophysiological assay at cloned NMDA receptor subunits expressed in Xenopus oocytes, 1A/2C; assay type: cell-based; details: cloned rat NMDA receptor in Xenopus oocytes, two-electrode voltage clamp, currents activated by glutamate and glycine; read-out: Subunits (IC50(μM)) 1A/2C
Experimental: as §1, §2, §3, §4, §5, §6, §7

[4] = biological target: NMDA receptor subunits 1A/2D (NR1A+NR2D) (Rattus norvegicus, UniProt P35439+Q62645); assay: Electrophysiological assay at cloned NMDA receptor subunits expressed in Xenopus oocytes, 1A/2D; assay type: cell-based; details: two-electrode voltage clamp, currents activated by glutamate and glycine
Source text: Electrophysiological Assays at NMDA Receptor Subunits […]
cDNA clones encoding the NR1A, NR2A, NR2B, NR2C and NR2D rat NMDA receptor subtypes were provided by Dr. P. H. Seeburg (see, Morivoshi et al., Nature (Lond.) 354:31-37 (1991); Kutsuwada et al., Nature (Lond.) 358:36-41 (1992) Monyer et al., Science (Washington. D.C.) 256:1217-1221 (1992); Ikeda et al., FEBS Lett. 313:34-38 (1992); Ishii et al., J. Biol. Chem. 268:2836-2843 (1993) for details of these clones or their mouse homologs). The clones were transformed into appropriate host bacteria and plasmid preparations were made with conventional DNA purification techniques. A sample of each clone was linearized by restriction enzyme digestion and cRNA was synthesized with T3 RNA polymerase. The cRNA was diluted to 400 ng/μl and stored in 1 μl aliquots at −80° C. until injection.
The Xenopus oocyte Expression System […]
Electrical recordings were made using a conventional two-electrode voltage clamp (Dagan TEV-200) over periods ranging between 3-14 days following injection. […] Inhibitory potency of the novel antagonists was assessed on responses elicited by fixed concentrations of glutamate and glycine, by measuring reductions in current induced by progressively increasing concentrations of antagonists. […]

[5] = test system: maximal electroshock-induced seizures; assay: Maximal electroshock-induced seizures (MES); assay type: in vivo, mice; details: Mus musculus; mice, tonic hindlimb extensor response, 50 mA corneal electrodes; read-out: MES (ED50)
Experimental: Maximal Electroshock-induced Seizures
Seizures were induced by application of current (50 mA, 60 pulses/sec, 0.8 sec pulse width, 1 sec duration, d.c.) through saline-coated corneal electrodes using a Ugo Basile ECT device (Model 7801). […] A tonic seizure was defined as a hindlimb extension in excess of 90 degrees from the plane of the body. Results were treated in a quantal manner.

NMDA receptor subunits 1A/2C (NR1A+NR2C), sequence (Q00961 20-1237, other chains not shown): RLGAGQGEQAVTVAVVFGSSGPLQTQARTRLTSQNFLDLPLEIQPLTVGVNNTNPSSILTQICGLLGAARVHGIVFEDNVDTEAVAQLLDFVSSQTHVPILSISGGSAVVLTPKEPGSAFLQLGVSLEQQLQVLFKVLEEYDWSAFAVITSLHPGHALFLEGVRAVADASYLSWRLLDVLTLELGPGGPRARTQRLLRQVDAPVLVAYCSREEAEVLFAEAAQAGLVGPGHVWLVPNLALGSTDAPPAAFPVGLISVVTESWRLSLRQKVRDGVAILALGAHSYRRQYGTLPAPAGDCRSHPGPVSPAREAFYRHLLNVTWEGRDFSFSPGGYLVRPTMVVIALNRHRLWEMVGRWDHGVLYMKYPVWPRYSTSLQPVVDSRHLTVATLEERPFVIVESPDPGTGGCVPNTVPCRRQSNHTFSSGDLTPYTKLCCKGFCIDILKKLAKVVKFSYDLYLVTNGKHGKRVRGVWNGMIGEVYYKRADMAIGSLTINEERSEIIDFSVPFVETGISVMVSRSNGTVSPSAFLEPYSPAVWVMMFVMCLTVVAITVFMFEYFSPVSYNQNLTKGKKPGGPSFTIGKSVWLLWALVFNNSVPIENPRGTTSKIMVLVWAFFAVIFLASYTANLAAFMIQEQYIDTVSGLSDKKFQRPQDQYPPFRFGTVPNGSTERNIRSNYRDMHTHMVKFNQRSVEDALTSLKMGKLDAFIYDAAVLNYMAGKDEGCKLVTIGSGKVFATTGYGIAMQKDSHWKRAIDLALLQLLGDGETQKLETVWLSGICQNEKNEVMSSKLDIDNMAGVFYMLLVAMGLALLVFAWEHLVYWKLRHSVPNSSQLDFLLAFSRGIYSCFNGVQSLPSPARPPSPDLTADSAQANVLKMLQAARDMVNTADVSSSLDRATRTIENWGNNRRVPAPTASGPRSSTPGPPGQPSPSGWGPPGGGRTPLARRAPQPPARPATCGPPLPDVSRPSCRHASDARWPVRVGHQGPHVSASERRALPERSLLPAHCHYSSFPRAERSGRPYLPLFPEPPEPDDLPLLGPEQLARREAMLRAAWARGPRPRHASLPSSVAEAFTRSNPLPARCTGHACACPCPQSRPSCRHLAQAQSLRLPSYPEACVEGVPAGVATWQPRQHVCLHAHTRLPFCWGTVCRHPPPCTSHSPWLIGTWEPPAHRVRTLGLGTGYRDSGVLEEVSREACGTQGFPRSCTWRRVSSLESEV
NMDA receptor subunits 1A/2D (NR1A+NR2D), sequence (Q62645 28-1323, other chains not shown): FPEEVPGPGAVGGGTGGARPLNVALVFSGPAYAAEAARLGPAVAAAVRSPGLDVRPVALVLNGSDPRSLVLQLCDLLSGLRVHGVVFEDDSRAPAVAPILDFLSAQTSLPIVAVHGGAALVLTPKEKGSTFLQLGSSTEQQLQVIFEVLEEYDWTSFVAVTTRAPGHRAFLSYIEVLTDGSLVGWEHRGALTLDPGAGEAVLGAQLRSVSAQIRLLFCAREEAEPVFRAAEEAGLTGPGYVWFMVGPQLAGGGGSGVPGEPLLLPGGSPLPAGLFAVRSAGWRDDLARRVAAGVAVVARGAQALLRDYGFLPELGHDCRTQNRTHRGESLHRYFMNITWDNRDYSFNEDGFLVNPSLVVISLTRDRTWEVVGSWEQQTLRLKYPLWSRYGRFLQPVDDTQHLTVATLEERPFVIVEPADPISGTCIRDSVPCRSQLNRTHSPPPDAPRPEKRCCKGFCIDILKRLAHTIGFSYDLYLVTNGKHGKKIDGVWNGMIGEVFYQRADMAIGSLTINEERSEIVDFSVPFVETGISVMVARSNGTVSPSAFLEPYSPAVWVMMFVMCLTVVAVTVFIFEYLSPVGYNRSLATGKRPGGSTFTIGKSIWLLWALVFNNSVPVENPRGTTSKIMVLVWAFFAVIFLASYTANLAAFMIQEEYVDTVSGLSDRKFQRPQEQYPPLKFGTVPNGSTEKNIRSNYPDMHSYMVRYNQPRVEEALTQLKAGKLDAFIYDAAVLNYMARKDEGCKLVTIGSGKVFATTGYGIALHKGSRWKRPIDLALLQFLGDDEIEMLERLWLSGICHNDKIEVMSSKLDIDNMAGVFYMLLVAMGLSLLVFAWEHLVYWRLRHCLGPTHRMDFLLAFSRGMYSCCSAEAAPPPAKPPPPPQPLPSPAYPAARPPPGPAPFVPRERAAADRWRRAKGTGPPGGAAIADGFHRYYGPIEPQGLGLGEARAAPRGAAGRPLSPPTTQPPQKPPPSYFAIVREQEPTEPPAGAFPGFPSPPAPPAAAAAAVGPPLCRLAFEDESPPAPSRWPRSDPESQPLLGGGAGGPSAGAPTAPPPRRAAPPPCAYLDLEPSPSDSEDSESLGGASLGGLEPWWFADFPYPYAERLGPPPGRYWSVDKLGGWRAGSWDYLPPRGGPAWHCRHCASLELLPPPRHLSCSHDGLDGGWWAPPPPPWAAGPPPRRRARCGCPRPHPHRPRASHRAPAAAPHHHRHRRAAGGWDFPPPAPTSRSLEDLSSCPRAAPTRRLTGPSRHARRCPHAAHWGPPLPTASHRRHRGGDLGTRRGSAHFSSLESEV
NMDA receptor subunits 1A/2B (NR1A+NR2B), sequence (Q00960 27-1482, other chains not shown): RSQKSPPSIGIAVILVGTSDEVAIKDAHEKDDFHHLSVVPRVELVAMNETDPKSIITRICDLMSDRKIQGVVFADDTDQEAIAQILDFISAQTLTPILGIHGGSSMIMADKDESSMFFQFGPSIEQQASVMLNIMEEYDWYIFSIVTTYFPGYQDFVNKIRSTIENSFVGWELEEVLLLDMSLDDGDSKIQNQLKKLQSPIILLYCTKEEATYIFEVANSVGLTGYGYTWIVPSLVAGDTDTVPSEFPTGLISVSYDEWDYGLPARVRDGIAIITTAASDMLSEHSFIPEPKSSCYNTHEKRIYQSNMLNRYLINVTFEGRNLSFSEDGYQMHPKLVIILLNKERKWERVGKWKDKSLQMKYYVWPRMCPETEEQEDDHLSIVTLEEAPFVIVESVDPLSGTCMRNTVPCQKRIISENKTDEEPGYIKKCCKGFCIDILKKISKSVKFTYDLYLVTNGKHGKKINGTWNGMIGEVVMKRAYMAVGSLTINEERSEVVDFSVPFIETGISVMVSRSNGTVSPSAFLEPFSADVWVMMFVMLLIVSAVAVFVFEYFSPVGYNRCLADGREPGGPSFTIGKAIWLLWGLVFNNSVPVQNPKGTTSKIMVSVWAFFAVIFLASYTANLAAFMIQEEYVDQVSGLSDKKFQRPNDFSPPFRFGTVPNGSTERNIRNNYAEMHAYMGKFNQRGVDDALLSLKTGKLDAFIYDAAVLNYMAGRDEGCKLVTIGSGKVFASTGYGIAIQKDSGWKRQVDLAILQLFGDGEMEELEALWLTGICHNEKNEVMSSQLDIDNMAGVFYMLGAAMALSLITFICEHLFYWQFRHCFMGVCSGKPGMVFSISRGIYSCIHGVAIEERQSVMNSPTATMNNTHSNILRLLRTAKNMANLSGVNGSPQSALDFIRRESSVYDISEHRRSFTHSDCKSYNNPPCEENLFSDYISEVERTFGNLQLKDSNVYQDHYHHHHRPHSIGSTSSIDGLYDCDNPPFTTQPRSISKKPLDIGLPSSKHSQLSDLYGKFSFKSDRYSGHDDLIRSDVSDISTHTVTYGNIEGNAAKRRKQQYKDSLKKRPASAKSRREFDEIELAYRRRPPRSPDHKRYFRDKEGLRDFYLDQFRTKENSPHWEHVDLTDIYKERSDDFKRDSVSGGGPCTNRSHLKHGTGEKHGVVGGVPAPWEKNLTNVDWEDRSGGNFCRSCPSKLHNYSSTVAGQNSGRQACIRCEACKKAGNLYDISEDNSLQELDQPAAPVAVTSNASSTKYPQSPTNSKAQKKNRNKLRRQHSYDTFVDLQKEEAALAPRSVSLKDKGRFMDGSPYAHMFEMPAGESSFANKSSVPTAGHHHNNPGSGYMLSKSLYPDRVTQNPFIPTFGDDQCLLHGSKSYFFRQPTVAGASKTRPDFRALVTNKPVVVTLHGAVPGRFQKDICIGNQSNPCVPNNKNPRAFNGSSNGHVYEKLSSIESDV

IC50 [1]: 13 µM
IC50 [2]: 35 µM
IC50 [3]: 110 µM
IC50 [4]: > 300 µM
Structure (SMILES): CCOc1ccccc1OCC1CCCCN1CCCOc1ccccc1 (centres unmarked) [Example 17, 2-[(2-Ethoxy)phenyoxy]methyl-1-(3-phenoxy)propylpiperidine]
ED50 [5]: 1 mg/kg
